In PubChem BioAssay AID256 (DTP/NCI, 2004):
Values joined by “and” are separate entries in the source; they are usually repeats but may differ in a detail not shown here. Equal values may be shown once. Toxic doses and inconclusive results are not listed.

System: CD2F1 mice, L1210 leukemia ip, survival T/C
Test: NCI In Vivo Anticancer Drug Screen. Data for tumor model L1210 Leukemia (intraperitoneal) in CD2F1 (CDF1) mice
Conditions: higher = longer survival
Description: The antitumor activity of compounds was measured in mice bearing transplantable tumors. Survival or tumor size were measured and the results are expressed as the measurement made in the treated group (T) divided by the measurement made in the vehicle treated control group (C). The tumor model used in this assay is L1210 Leukemia (intraperitoneal) in CD2F1 (CDF1) mice

[1] = endpoint: mean survival time, dose: 100.0 mg/kg/injection, schedule: Q01DX009 (ip), vehicle: saline with Tween-80
[2] = endpoint: mean survival time, dose: 200.0 mg/kg/injection, schedule: Q01DX009 (ip), vehicle: saline with Tween-80
[3] = endpoint: mean survival time, dose: 400.0 mg/kg/injection, schedule: Q01DX009 (ip), vehicle: saline with Tween-80
[4] = endpoint: mean survival time, dose: 100.0 mg/kg/injection, schedule: Q01DX001 (ip), vehicle: saline with Tween-80
[5] = endpoint: mean survival time, dose: 200.0 mg/kg/injection, schedule: Q01DX001 (ip), vehicle: saline with Tween-80
[6] = endpoint: mean survival time, dose: 100.0 mg/kg/injection, schedule: Q04DX003 (ip), vehicle: saline with Tween-80
[7] = endpoint: mean survival time, dose: 200.0 mg/kg/injection, schedule: Q04DX003 (ip), vehicle: saline with Tween-80

With `O=CC(CO)CC(C=O)n1cnc2c(=O)[nH]cnc21` (stereo not drawn) the T/C (endpoint: mean survival time, dose: 60.0 mg/kg/injection, schedule: Q01DX009 (ip), vehicle: saline) was 123 % of control, the T/C (endpoint: mean survival time, dose: 89.0 mg/kg/injection, schedule: Q01DX009 (ip), vehicle: saline) was 116 % of control and the T/C (endpoint: mean survival time, dose: 300.0 mg/kg/injection, schedule: Q01DX009 (ip), vehicle: saline) was 159 % of control. The T/C (endpoint: mean survival time, dose: 300.0 mg/kg/injection, schedule: Q04DX003 (ip), vehicle: saline) was 150 % of control and the T/C (endpoint: median survival time, dose: 37.5 mg/kg/injection, schedule: Q01DX009 (ip), vehicle: saline) was 113 % of control and 124 % of control.
For `O=C(CC(=O)c1ccccc1)CC(=O)c1ccccc1`, the T/C [1] was 98 % of control, the T/C [2] was 100 % of control and the T/C [3] was 102 % of control.
With `CCOC(=O)NCC(Cl)CP(=O)(c1ccccc1)c1ccccc1` (stereo not drawn) the T/C [4] was 92 % of control, the T/C [1] was 97 % of control and the T/C [5] was 92 % of control. For the same compound, the T/C [2] was 97 % of control, the T/C (endpoint: mean survival time, dose: 400.0 mg/kg/injection, schedule: Q01DX001 (ip), vehicle: saline with Tween-80) was 92 % of control and the T/C [3] was 96 % of control.
For `O=C(O)c1nn2c(=O)c3cccc4cccc(c43)c2c1C(=O)O`, the T/C (endpoint: mean survival time, dose: 25.0 mg/kg/injection, schedule: Q04DX002 (ip), vehicle: saline with Tween-80) was 95 % of control, the T/C (endpoint: mean survival time, dose: 50.0 mg/kg/injection, schedule: Q04DX002 (ip), vehicle: saline with Tween-80) was 98 % of control and the T/C (endpoint: mean survival time, dose: 100.0 mg/kg/injection, schedule: Q04DX002 (ip), vehicle: saline with Tween-80) was 95 % of control. For the same compound, the T/C (endpoint: mean survival time, dose: 200.0 mg/kg/injection, schedule: Q04DX002 (ip), vehicle: saline with Tween-80) was 95 % of control.
`Nc1ccc(/C=C/C(=O)Nc2ccc(S(=O)(=O)F)cc2)cc1` was tested, and the T/C [4] was 98 % of control and the T/C [5] was 95 % of control.
`NNC(=O)c1cccc(N)c1` was tested, and the T/C (endpoint: mean survival time, dose: 25.0 mg/kg/injection, schedule: Q01DX009 (ip), vehicle: saline sonified) was 98 % of control, the T/C (endpoint: mean survival time, dose: 50.0 mg/kg/injection, schedule: Q01DX009 (ip), vehicle: saline sonified) was 102 % of control and the T/C (endpoint: mean survival time, dose: 100.0 mg/kg/injection, schedule: Q01DX009 (ip), vehicle: saline sonified) was 102 % of control. For the same compound, the T/C [6] was 104 % of control.
With `C[Si](C)(CN)CN.O=C([O-])C1(C(=O)[O-])CCC1.[Pt+4]` the T/C (endpoint: median survival time, dose: 2.5 mg/kg/injection, schedule: Q04DX003 (ip), vehicle: water) was 110 % of control, the T/C (endpoint: median survival time, dose: 5.0 mg/kg/injection, schedule: Q04DX003 (ip), vehicle: water) was 107 % of control and the T/C (endpoint: median survival time, dose: 10.0 mg/kg/injection, schedule: Q04DX003 (ip), vehicle: water) was 122 % of control. The T/C (endpoint: median survival time, dose: 20.0 mg/kg/injection, schedule: Q04DX003 (ip), vehicle: water) was 151 % of control, the T/C (endpoint: median survival time, dose: 25.0 mg/kg/injection, schedule: Q04DX003 (ip), vehicle: water) was 151 % of control and the T/C (endpoint: median survival time, dose: 40.0 mg/kg/injection, schedule: Q04DX003 (ip), vehicle: water) was 164 % of control and 177 % of control. For the same compound, the T/C (endpoint: median survival time, dose: 50.0 mg/kg/injection, schedule: Q04DX003 (ip), vehicle: water) was 175 % of control, the T/C (endpoint: median survival time, dose: 60.0 mg/kg/injection, schedule: Q04DX003 (ip), vehicle: water) was 181 % of control and the T/C (endpoint: median survival time, dose: 80.0 mg/kg/injection, schedule: Q04DX003 (ip), vehicle: water) was 244 % of control. The T/C (endpoint: median survival time, dose: 100.0 mg/kg/injection, schedule: Q04DX003 (ip), vehicle: water) was 175 % of control.
`O=c1cccc(Cl)[nH]1` was tested, and the T/C [1] was 102 % of control, the T/C [6] was 98 % of control and the T/C [2] was 102 % of control. For the same compound, the T/C [7] was 102 % of control, the T/C [3] was 90 % of control and the T/C (endpoint: mean survival time, dose: 400.0 mg/kg/injection, schedule: Q04DX003 (ip), vehicle: saline with Tween-80) was 98 % of control.
With `CCCCOC(=O)c1ccc(NC(=O)Nc2ccccc2Cl)cc1` the T/C (endpoint: mean survival time, dose: 50.0 mg/kg/injection, schedule: Q01DX009 (ip), vehicle: saline with Tween-80) was 89 % of control, the T/C [1] was 86 % of control and the T/C [6] was 91 % of control. The T/C [2] was 96 % of control and the T/C [7] was 100 % of control.
`Cc1ccc(S(=O)(=O)OCC(O)C(O)C(O)C(O)COS(=O)(=O)c2ccc(C)cc2)cc1` (stereo not drawn) was tested, and the T/C (endpoint: mean survival time, dose: 50.0 mg/kg/injection, schedule: Q01DX001 (ip), vehicle: saline with Tween-80) was 96 % of control, the T/C [4] was 96 % of control and the T/C [5] was 96 % of control.
